According to ChEMBL document CHEMBL1201862, “PubChem BioAssay data set” (2004):
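Growth conditions: 96-well plates. Treatment: test compound, 48 hours, 5 concentrations. Analysis: linear interpolation between bracketing concentrations; unreached endpoints set to highest concentration. Here, GI50 denotes the concentration required for 50% inhibition of growth.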 Active and inactive are the calls of the source. No stated cut-off is given here; in the data, active = GI50 up to about 1.1 µM and inactive = higher.

How the values were obtained:
Test in all cases: growth of human tumour cells (NCI), 48 h
ACHN = system: ACHN
MDA-MB-231 = system: MDA-MB-231
T47D = system: T47D
A498 = system: A498
SF-295 = system: SF-295
HCT-116 = system: HCT-116
NCI-H460 = system: NCI-H460
A549 = system: A549
SK-MEL-2 = system: SK-MEL-2
NCI-H226 = system: NCI-H226
SK-OV-3 = system: SK-OV-3
SK-MEL-5 = system: SK-MEL-5
SN12C = system: SN12C
HOP-92 = system: HOP-92
SR = system: SR
K562 = system: K562
SW-620 = system: SW-620
COLO 205 = system: COLO 205
OVCAR-8 = system: OVCAR-8

Measured: GI50

O=C1CC2SC(COCc3ccccc3)(CCN2Cc2ccccc2)C1 (centres undefined)
inactive: ACHN 82.2 µM | MDA-MB-231 > 100 µM | T47D 54.6 µM | A498 > 100 µM | SF-295 61.2 µM | HCT-116 44.2 µM | NCI-H460 54.6 µM | A549 51.2 µM | SK-MEL-2 > 100 µM | NCI-H226 87.3 µM | SK-OV-3 > 100 µM | SK-MEL-5 19.5 µM | SN12C > 100 µM | HOP-92 45.6 µM | SR 35.2 µM | K562 38.1 µM | SW-620 > 100 µM | COLO 205 39.1 µM | OVCAR-8 > 100 µM

CC(C)(CC(O)C#N)/[N+]([O-])=[N+](\[O-])C(C)(C)CC(O)C#N (centres undefined)
inactive: ACHN 23.2 µM | MDA-MB-231 23.9 µM | T47D 27.5 µM | A498 > 100 µM | SF-295 35.7 µM | HCT-116 15.2 µM | NCI-H460 36.1 µM | A549 57.4 µM | SK-MEL-2 43 µM | NCI-H226 25.6 µM | SK-OV-3 29.8 µM | SK-MEL-5 29.2 µM | SN12C 19.3 µM | HOP-92 18.2 µM | SR 15.2 µM | K562 14.4 µM | SW-620 12 µM | COLO 205 14.8 µM | OVCAR-8 32.3 µM

NC1=NC2(COC(c3ccccc3)(c3ccccc3)c3ccccc3)OC(COC(c3ccccc3)(c3ccccc3)c3ccccc3)C(O)C2O1 (centres undefined)
inactive: ACHN 88.3 µM | MDA-MB-231 67.1 µM | T47D 53.1 µM | A498 > 100 µM | SF-295 46.5 µM | HCT-116 38.3 µM | A549 25.1 µM | SK-MEL-2 5.77 µM | NCI-H226 24.2 µM | SK-OV-3 > 100 µM | SK-MEL-5 26.1 µM | SN12C > 100 µM | HOP-92 15.2 µM | SR 32.9 µM | K562 21.8 µM | SW-620 > 100 µM | COLO 205 67.1 µM | OVCAR-8 5.98 µM

Cc1nc(SCC(=O)Nc2ccccc2)c2sc(=S)n(-c3ccccc3)c2n1
inactive: ACHN > 10 µM | MDA-MB-231 6.18 µM | T47D > 10 µM | A498 > 10 µM | SF-295 > 10 µM | HCT-116 > 10 µM | NCI-H460 > 10 µM | A549 > 10 µM | SK-MEL-2 > 10 µM | NCI-H226 2.9 µM | SK-OV-3 > 10 µM | SK-MEL-5 > 10 µM | SN12C > 10 µM | HOP-92 > 10 µM | SR > 10 µM | SW-620 > 10 µM | COLO 205 > 10 µM | OVCAR-8 9.12 µM

Cn1c2ccccc2n2c(N=O)c(-c3ccccc3)nc12
inactive: ACHN > 100 µM | MDA-MB-231 53.6 µM | T47D 95.9 µM | A498 > 100 µM | SF-295 31.1 µM | HCT-116 87.9 µM | NCI-H460 16.4 µM | A549 21.6 µM | SK-MEL-2 33.1 µM | SK-OV-3 67.3 µM | SK-MEL-5 14.8 µM | SN12C 69.2 µM | HOP-92 84.3 µM | SR 55.1 µM | K562 > 100 µM | SW-620 72.8 µM | COLO 205 10.2 µM | OVCAR-8 > 100 µM

CCCC(=O)N(C)/N=N/c1ccc(C(=O)OCC)cc1
inactive: ACHN > 100 µM | MDA-MB-231 > 100 µM | T47D 63.4 µM | A498 81.7 µM | SF-295 > 100 µM | HCT-116 > 100 µM | NCI-H460 22.6 µM | A549 > 100 µM | SK-MEL-2 > 100 µM | NCI-H226 > 100 µM | SK-MEL-5 > 100 µM | SN12C > 100 µM | HOP-92 > 100 µM | SR > 100 µM | K562 > 100 µM | SW-620 > 100 µM | OVCAR-8 > 100 µM

COC(C)(C)/C=C/c1[nH]c2ccccc2c1CC(=O)NCCc1cn(C(c2ccccc2)(c2ccccc2)c2ccccc2)cn1
inactive: ACHN 4.53 µM | MDA-MB-231 4.72 µM | T47D 2.71 µM | A498 3.25 µM | SF-295 4.7 µM | HCT-116 4.12 µM | NCI-H460 2.62 µM | A549 3.71 µM | SK-MEL-2 2.64 µM | NCI-H226 3.65 µM | SK-MEL-5 2.92 µM | SN12C 3.41 µM | HOP-92 5.33 µM | SR 2.23 µM | K562 3.17 µM | SW-620 4.23 µM | COLO 205 2.02 µM | OVCAR-8 4.99 µM

O=C1C(CN2CCCCC2)CCC1CN1CCCCC1 (centres undefined)
inactive: ACHN 26 µM | MDA-MB-231 20.2 µM | T47D 13.5 µM | A498 15.2 µM | SF-295 > 46.5 µM | HCT-116 24.5 µM | NCI-H460 > 100 µM | A549 > 96.6 µM | SK-MEL-2 30.1 µM | NCI-H226 > 96.6 µM | SK-OV-3 > 100 µM | SK-MEL-5 43.9 µM | SN12C 30.4 µM | HOP-92 23.2 µM | SR 1.6 µM | K562 1.2 µM | SW-620 6.37 µM | COLO 205 14.7 µM | OVCAR-8 26.8 µM

CCCN1CCC(=O)N(CCC(F)(F)C(F)(F)C(F)(F)C(F)(F)C(F)(F)C(F)(F)F)C1=S
inactive: ACHN > 100 µM | MDA-MB-231 > 100 µM | T47D > 100 µM | A498 > 100 µM | SF-295 > 100 µM | HCT-116 > 100 µM | NCI-H460 > 100 µM | A549 > 100 µM | NCI-H226 > 100 µM | SK-OV-3 > 100 µM | SK-MEL-5 > 100 µM | SN12C > 100 µM | HOP-92 > 100 µM | SR > 100 µM | K562 > 100 µM | SW-620 > 100 µM | COLO 205 69.7 µM | OVCAR-8 > 100 µM

O=C1Nc2cc([N+](=O)[O-])ccc2N/C1=C/C(=O)c1ccc(Cl)cc1
inactive: ACHN 15.1 µM | MDA-MB-231 5.83 µM | T47D 13.5 µM | A498 19.7 µM | SF-295 13.3 µM | HCT-116 3.24 µM | NCI-H460 8.34 µM | A549 10 µM | SK-MEL-2 16.9 µM | NCI-H226 19.5 µM | SK-OV-3 19.4 µM | SK-MEL-5 15.9 µM | HOP-92 16 µM | SR 12.2 µM | K562 3.64 µM | SW-620 13.9 µM | COLO 205 24.4 µM | OVCAR-8 8 µM

Cc1ccc(/N=C2/S/C(=C3/CCC=C3N3CCOCC3)N(c3ccc(Cl)cc3)/C2=N/c2ccc(C)cc2)cc1
inactive: ACHN > 100 µM | MDA-MB-231 > 100 µM | T47D > 100 µM | A498 > 100 µM | HCT-116 > 100 µM | NCI-H460 > 100 µM | A549 > 100 µM | SK-MEL-2 > 100 µM | NCI-H226 > 100 µM | SK-MEL-5 > 100 µM | SN12C > 100 µM | HOP-92 > 100 µM | SR > 100 µM | K562 > 100 µM | SW-620 > 100 µM | COLO 205 > 100 µM | OVCAR-8 > 100 µM
